This is an account of results in patent US20130303509A1, “NAMPT INHIBITORS” (AbbVie Inc., priority 2012, published 2013).

In one assay the test system is activated T cells.
Experiment: not given
Conditions: cited from earlier work.
As to `O=C(/C=C/c1cccnc1)NCCCCC1CCN(C(=O)c2ccccc2)CC1` [FK866], the “proliferation and apoptosis of activated T cells” value is “selectively block proliferation and induce apoptosis”.

Test system in another assay: not given
Experiment: not given
Conditions: collagen induced arthritis; cited from earlier work.
On to `O=C(/C=C/c1cccnc1)NCCCCC1CCN(C(=O)c2ccccc2)CC1` [FK866], for which the “efficacy in animal models of arthritis” value is listed as “efficacious”.

Test system in another assay: not given
Experiment: not given
Conditions: model of T-cell mediated autoimmune disorders; cited from earlier work.
On to `O=C(/C=C/c1cccnc1)NCCCCC1CCN(C(=O)c2ccccc2)CC1` [FK866], for which the “manifestations of experimental autoimmune encephalomyelitis” value is listed as “ameliorated the manifestations”.

The subject of a further assay is PC3 cells. The assay is described as follows: NAMPT Cell Proliferation Assay. The assay is classed as cell-based. Conditions: Homo sapiens, PC-3, 120 h, 5 days incubation, cell viability by Cell Titer Glo. The gist of the method: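 Five-day CellTiter-Glo viability readout in PC3 cells grown in RPMI/10% heat-inactivated FBS. Compounds added after overnight attachment as a 10-fold dilution series, […]. Percent inhibition fitted to sigmoidal dose-response to derive IC50.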
Regarding `CCC(C)CC(=O)N1CCC(Oc2ccc(NC(=O)C3CN(c4cccnc4)C3)cc2)CC1` (stereo not drawn) [Example 38, N-(4-{[1-(3-methylpentanoyl)piperidin-4-yl]oxy}phenyl)-1-(pyridin-3-yl)azetidine-3-carboxamide], half-maximal inhibition (IC50) was put at 6.39 nM.
Same read-out and setting: as for `CC(C)(C)Cc1nc(-c2ccc(NC(=O)C3CN(c4cccnn4)C3)cc2)no1` [Example 806, N-{4-[5-(2,2-dimethylpropyl)-1,2,4-oxadiazol-3-yl]phenyl}-1-(pyridazin-3-yl)azetidine-3-carboxamide], the figure is 3.13 nM.
`O=C(Nc1ccc(C2CCN(C(=O)C3CCCO3)CC2)cc1)C1CN(c2cccnn2)C1` (stereo not drawn) [Example 412, 1-(pyridazin-3-yl)-N-{4-[1-(tetrahydrofuran-2-ylcarbonyl)piperidin-4-yl]phenyl}azetidine-3-carboxamide]: the midpoint of inhibition, the IC50, lay at 1.37 nM.
Still for that read-out and setting: as for `CC(C)(C)C(=O)N1CCC(Oc2ccc(NC(=O)[C@H]3CCN(c4cccnn4)C3)cc2)CC1` [Example 801, (3S)-N-(4-{[1-(2,2-dimethylpropanoyl)piperidin-4-yl]oxy}phenyl)-1-(pyridazin-3-yl)pyrrolidine-3-carboxamide], the figure is 24.6 nM.
For `CC(=O)N1CCC(C(=O)N2CCC(c3ccc(NC(=O)C4CN(c5cccnn5)C4)cc3)CC2)CC1` [Example 383, N-(4-{1-[(1-acetylpiperidin-4-yl)carbonyl]piperidin-4-yl}phenyl)-1-(pyridazin-3-yl)azetidine-3-carboxamide], the IC50 amounted to 62.7 nM. Compared with the last compound, the IC50 is about 2.5-fold higher.
The same measure, in the same setting: as for `O=C(Nc1ccc(C2CCN(C(=O)Cc3ccccc3F)CC2)cc1)[C@H]1CCN(c2cccnn2)C1` [Example 710, (3S)-N-(4-{1-[(2-fluorophenyl)acetyl]piperidin-4-yl}phenyl)-1-(pyridazin-3-yl)pyrrolidine-3-carboxamide], the figure is 10.3 nM; as for `O=C(Nc1ccc(C2CCN(C(=O)CCc3ccccc3)CC2)cc1)C1CN(c2cccnn2)C1` [Example 422, N-{4-[1-(3-phenylpropanoyl)piperidin-4-yl]phenyl}-1-(pyridazin-3-yl)azetidine-3-carboxamide], 1.12 nM; as for `O=C(Nc1ccc(OC2CCN(C(=O)CC(F)(F)F)CC2)cc1)[C@H]1CCN(c2cccnc2)C1` [Example 18, (3S)-1-(pyridin-3-yl)-N-(4-{[1-(3,3,3-trifluoropropanoyl)piperidin-4-yl]oxy}phenyl)pyrrolidine-3-carboxamide], 148 nM.
On the same count and under the same terms, then `CC(C)CC(=O)N1CCC(c2ccc(NC(=O)C3CN(c4cccnn4)C3)cc2)CC1` [Example 320, N-{4-[1-(3-methylbutanoyl)piperidin-4-yl]phenyl}-1-(pyridazin-3-yl)azetidine-3-carboxamide], with 2.37 nM.
The compound `CC1(Cn2cc(-c3ccc(NC(=O)C4CN(c5cccnn5)C4)cc3)cn2)CCOCC1` [Example 748, N-(4-{1-[(4-methyltetrahydro-2H-pyran-4-yl)methyl]-1H-pyrazol-4-yl}phenyl)-1-(pyridazin-3-yl)azetidine-3-carboxamide] returned an IC50 of 2.58 nM. The IC50 values of the last two compounds are within 1.5-fold of each other.
On the same count and under the same terms, as for `O=C(Nc1ccc(OC2CN(C(=O)c3ccc(F)cc3F)C2)cc1)C1CN(c2ccnnc2)C1` [Example 200, N-(4-{[1-(2,4-difluorobenzoyl)azetidin-3-yl]oxy}phenyl)-1-(pyridazin-4-yl)azetidine-3-carboxamide], the figure is 71.9 nM; as for `O=C(Nc1ccc(C2CCN(C(=O)Cc3ccc(Cl)cc3Cl)CC2)cc1)C1CN(c2cccnn2)C1` [Example 405, N-(4-{1-[(2,4-dichlorophenyl)acetyl]piperidin-4-yl}phenyl)-1-(pyridazin-3-yl)azetidine-3-carboxamide], 6.75 nM.
For `O=C(Nc1ccc(C2CCN(C(=O)c3ccc(F)cc3F)CC2)cc1)C1CN(c2ccnnc2)C1` [Example 547, N-{4-[1-(2,4-difluorobenzoyl)piperidin-4-yl]phenyl}-1-(pyridazin-4-yl)azetidine-3-carboxamide], 3.02 nM corresponded to half-maximal inhibition (IC50). This IC50 lies about 2.2-fold lower than the previous one.
On the same count and under the same terms, then `CC(=O)N1CCC(c2ccc(NC(=O)C3CN(c4cccnc4C)C3)cc2)CC1` [Example 178, N-[4-(1-acetylpiperidin-4-yl)phenyl]-1-(2-methylpyridin-3-yl)azetidine-3-carboxamide], with 300 nM; and `O=C(Nc1ccc(S(=O)(=O)C2CCN(C(=O)C3CC3)CC2)cc1)C1CN(c2cccnn2)C1` [Example 592, N-(4-{[1-(cyclopropylcarbonyl)piperidin-4-yl]sulfonyl}phenyl)-1-(pyridazin-3-yl)azetidine-3-carboxamide], with 620 nM; and `CC(=O)N[C@@H](CC(C)C)C(=O)N1CCC(c2ccc(NC(=O)[C@H]3CCN(c4cccnn4)C3)cc2)CC1` [Example 724, (3S)-N-{4-[1-(N-acetyl-L-leucyl)piperidin-4-yl]phenyl}-1-(pyridazin-3-yl)pyrrolidine-3-carboxamide], with 80.9 nM.
On the same count and under the same terms, then `Cc1ccc(C(=O)N2CCC(c3ccc(NC(=O)C4CN(c5cccnn5)C4)cc3)CC2)cc1F` [Example 389, N-{4-[1-(3-fluoro-4-methylbenzoyl)piperidin-4-yl]phenyl}-1-(pyridazin-3-yl)azetidine-3-carboxamide], with 7.17 nM; and `CC(C)C(=O)N1CCC(c2ccc(C(=O)N[C@H]3CCN(c4cccnn4)C3)s2)CC1` [Example 760, 5-[1-(2-methylpropanoyl)piperidin-4-yl]-N-[(3S)-1-(pyridazin-3-yl)pyrrolidin-3-yl]thiophene-2-carboxamide], with 253 nM.
`CCC(CC)C(=O)N1CCC(c2ccc(NC(=O)C3CN(c4ccc(F)nn4)C3)cc2)CC1` [Example 822, N-{4-[1-(2-ethylbutanoyl)piperidin-4-yl]phenyl}-1-(6-fluoropyridazin-3-yl)azetidine-3-carboxamide] had an IC50 of 60.5 nM.
The same measure, in the same setting: as for `CC(C)CCC(=O)N1CCC(c2ccc(NC(=O)C3CN(c4cccnn4)C3)cc2)CC1` [Example 324, N-{4-[1-(4-methylpentanoyl)piperidin-4-yl]phenyl}-1-(pyridazin-3-yl)azetidine-3-carboxamide], the figure is 7.08 nM.
Consider `O=C(Nc1ccc(S(=O)(=O)C2CCN(C(=O)Cc3ccccc3)CC2)cc1)C1CN(c2cccnn2)C1` [Example 600, N-(4-{[1-(phenylacetyl)piperidin-4-yl]sulfonyl}phenyl)-1-(pyridazin-3-yl)azetidine-3-carboxamide], for which the midpoint of inhibition, the IC50, lay at 219 nM.
